Test results: patent US4196205A, “3-Acetoxymethyl-7-(iminoacetamido)-cephalosporanic acid derivatives” (priority 1976, dated 1980)
Where two headings read alike, the source gives them in different places.

Columns and labels:
[1] = test system: Escherichia Coli (T) O26 B6; experiment: Experimental infection with Escherichia Coli (T) O26 B6 in mice (21.5 g, culture diluted 1/6); assay type: in vivo, male mice
Protocol: (§1) The product of Example 4 was studied for its activity against an experimental infection of Escherichia Coli in groups of 10 male mice weighing about 21.5 g. The mice recieved an intraperitoneal injection of 0.5 ml of a 24 hour old culture in a nutritive media of Escherichia Coli (T) O26 B6 of the Pasteur Institute diluted 1/6 with distilled water. The test product was administered subcutaneously or orally 1 hour and 5 and 24 hours after the infection and the number of dead was determined after 8 days.

[2] = test system: Staphylococcus aureus exp. n° 54 146; experiment: MIC, dilution in liquid medium; assay type: cell-based; conditions: Staphylococcus aureus
Protocol: (§2) The method used was a dilution of a liquid medium where a series of tubes received the same quantity of a sterile nutritive media and increasing doses of the test compounds were placed therein. Then each tube was seeded with a bacterial strain and was incubated for 24 to 48 hours at 37° C. in an oven. The increasing inhibition was determined by transillumination to determine the minimum inhibiting concentration (MIC in […]) and the results are reported in the following Tables.

[3] = test system: Streptococcus pyogenes A 561; experiment: MIC, dilution in liquid medium; assay type: cell-based; conditions: for MIC: Streptococcus pyogenes, read-out: M.I.C.
Protocol: as §2

[4] = test system: Escherichia Coli T 96 875; experiment: MIC, dilution in liquid medium; assay type: cell-based
Protocol: as §2

[5] = test system: Escherichia Coli Sensible Tetracycline ATCC 9 637 = 1020; experiment: MIC, dilution in liquid medium; assay type: cell-based; conditions: for MIC: Escherichia coli
Protocol: as §2

Providencia Du 48 = experiment: MIC, dilution in liquid medium; assay type: cell-based; conditions: for MIC: Providencia
Protocol: as §2

Enterobacter cloacae 681 = experiment: MIC, dilution in liquid medium; assay type: cell-based
Protocol: as §2

[6] = test system: Proteus mirabilis (indol-) A 235; experiment: MIC, dilution in liquid medium; assay type: cell-based; conditions: Proteus mirabilis, read-out: M.I.C.
Protocol: as §2

Escherichia Coli 25 575 = experiment: MIC, dilution in liquid medium; assay type: cell-based
Protocol: as §2

[7] = test system: Escherichia Coli Resistant Gentamicine, Tobramycine R 55 123 D; experiment: MIC, dilution in liquid medium; assay type: cell-based; conditions: for MIC: Escherichia coli
Protocol: as §2

[8] = test system: Staphylococcus aureus UC 1 128 Pen-Resistant; experiment: MIC, dilution in liquid medium; assay type: cell-based; conditions: Staphylococcus aureus
Protocol: as §2

Pseudomonas 8951 RGT = experiment: MIC, dilution in liquid medium; assay type: cell-based
Protocol: as §2

Escherichia Coli Galle = experiment: MIC, dilution in liquid medium; assay type: cell-based
Protocol: as §2

[9] = test system: Escherichia Coli Exp. TO26 B6; experiment: MIC, dilution in liquid medium; assay type: cell-based; conditions: Escherichia coli
Protocol: as §2

[10] = test system: Salmonella typhimurium 420; experiment: MIC, dilution in liquid medium; assay type: cell-based; conditions: Salmonella enterica, TYPHIMURIUM
Protocol: as §2

[11] = test system: Klebsiella pneumoniae Exp. 52 145; experiment: MIC, dilution in liquid medium; assay type: cell-based; conditions: Klebsiella pneumoniae, read-out: M.I.C.
Protocol: as §2

[12] = test system: Streptococcus faecalis 99 F 74; experiment: MIC, dilution in liquid medium; assay type: cell-based; conditions: Enterococcus faecalis
Protocol: as §2

[13] = test system: Bacillus subtilis ATCC 6 633; experiment: MIC, dilution in liquid medium; assay type: cell-based; conditions: for MIC: Bacillus subtilis
Protocol: as §2

[14] = test system: Klebsiella pneumoniae 2 536 Resistant Gentamicine; experiment: MIC, dilution in liquid medium; assay type: cell-based; conditions: for MIC: Klebsiella pneumoniae
Protocol: as §2

Straphylococcus Smith = experiment: MIC, dilution in liquid medium; assay type: cell-based
Protocol: as §2

Escherichia Coli E6 = experiment: MIC, dilution in liquid medium; assay type: cell-based
Protocol: as §2

[15] = test system: Serratia Resistant Gentamicine 2 532; experiment: MIC, dilution in liquid medium; assay type: cell-based
Protocol: as §2

[16] = test system: Escherichia Coli Resistant Tetracycline ATCC 11 303 = UC 1261; experiment: MIC, dilution in liquid medium; assay type: cell-based; conditions: Escherichia coli, read-out: M.I.C.
Protocol: as §2

[17] = test system: Staphylococcus aureus ATCC 5 638 Pen-Sensible = UC 1061; experiment: MIC, dilution in liquid medium; assay type: cell-based
Protocol: as §2

[18] = test system: Streptococcus faecalis 5 432; experiment: MIC, dilution in liquid medium; assay type: cell-based
Protocol: as §2

[19] = test system: Proteus vulgaris (indol+) A 232; experiment: MIC, dilution in liquid medium; assay type: cell-based
Protocol: as §2

[20] = test system: Pseudomonas 3 935 Exp. SG; experiment: MIC, dilution in liquid medium; assay type: cell-based; conditions: Pseudomonas, 3935EXP.SG
Protocol: as §2

[21] = test system: Escherichia Coli (T) O26 B6; experiment: Experimental infection with Escherichia Coli (T) O26 B6 in mice, repeated (22.5 g, culture diluted 1/5.5); assay type: in vivo
Protocol: as §1
The procedure was repeated with mice weighing about 22.5 g with an intraperitoneal injection of a 24 hour old culture of Escherichia Coli (T) O26 B6 diluted 1/5.5 with distilled water with the product of Example 4.

[22] = test system: Staphylococcus aureus Co 15 Resistant Cephalexine; experiment: MIC, dilution in liquid medium; assay type: cell-based
Protocol: as §2

[23] = Enterococcus faecalis, 5432, 24 h, 24 H

CO/N=C(\C(=O)N[C@@H]1C(=O)N2C(C(=O)O)=C(COC(C)=O)CS[C@H]12)c1csc(N)n1 [Example 4, 3-acetoxymethyl-7-[2-(2-amino-4-thiazolyl)-2-methoxyiminoacetamido]-ceph-3-eme-4-carboxylic acid]
2 µg/mL: MIC ([8]; UC1, 24 h, 24 H) | MIC ([8]; UC1, 48 h, 48 H) | MIC ([12]; 99F74, 24 h, 24 H) | MIC [18, 23] | MIC ([18]; Enterococcus faecalis, 5432, 48 h, 48 H) | M.I.C. ([19]; 24 H)
2: MORTALITY AFTER 32H ([21]; 0,1 mg OS) | MORTALITY AFTER 32H ([21]; 0,05 mg OS) | MORTALITY AFTER 22H 30 ([21]; 0,015 mg S.C.) | MORTALITY AFTER 23H 50 ([21]; 0,015 mg S.C.) | MORTALITY AFTER 46H 30 ([21]; 0,015 mg S.C.) | MORTALITY AFTER 4j ([21]; 0,025 mg S.C.)
40 µg/mL: MIC (Enterobacter cloacae 681; Enterobacter cloacae, 681, 24 h) | MIC (Enterobacter cloacae 681; Enterobacter cloacae, 681, 48 h) | MIC (Pseudomonas 8951 RGT; 24 h) | M.I.C. ([19]; 48 H) | MIC ([20]; 48 h)
0,6-1 μg/ml: M.I.C. ([7]; 48 H)
0,05 μg/ml: M.I.C. ([3]; 48 H)
1 µg/mL: MIC ([13]; ATCC6, 48 h, 48 H, read-out: M.I.C.) | MIC (Straphylococcus Smith; 24 h) | MIC (Straphylococcus Smith; 48 h) | MIC ([15]; 24 h, read-out: M.I.C.) | MIC ([15]; 48 h, read-out: M.I.C.) | MIC ([17]; 24 h, read-out: M.I.C.) | MIC ([17]; 48 h, read-out: M.I.C.)
> 40 µg/mL: MIC (Pseudomonas 8951 RGT; 48 h)
0.1 µg/mL: MIC (Escherichia Coli Galle; 24 h) | MIC ([9]; 48 h)
0,6 μg/ml: M.I.C. ([7]; 24 H) | M.I.C. ([14]; 24 H) | M.I.C. ([14]; 48 H)
5 µg/mL: M.I.C. (Providencia Du 48; 24 H) | M.I.C. (Providencia Du 48; 48 H)
1: deaths after 28.5 h (out of 10 mice) ([1]; 0.1 mg orally) | MORTALITY AFTER 9H 35 ([21]; 0,1 mg OS) | MORTALITY AFTER 24H ([21]; 0,1 mg OS) | MORTALITY AFTER 70H ([21]; 0,1 mg OS) | MORTALITY AFTER 24H ([21]; 0,05 mg OS) | MORTALITY AFTER 31H ([21]; 0,05 mg OS) | MORTALITY AFTER 25H 50 ([21]; 0,025 mg S.C.) | MORTALITY AFTER 26H 30 ([21]; 0,025 mg S.C.)
0.05 µg/mL: MIC ([4]; COLIT96875, 24 h) | MIC ([4]; COLIT96875, 48 h) | MIC (Escherichia Coli 25 575; COLI25575, 24 h) | MIC (Escherichia Coli 25 575; COLI25575, 48 h) | MIC (Escherichia Coli E6; COLIE6, 24 h) | MIC (Escherichia Coli E6; COLIE6, 48 h)
9/10: mice alive after 8 days ([1]; 0.1 mg orally)
10/10: mice alive after 8 days ([1]; 0.05 mg subcutaneously) | mice alive after 8 days ([1]; 0.1 mg subcutaneously (first line)) | mice alive after 8 days ([1]; 0.1 mg subcutaneously (second line)) | mice alive after 8 days ([1]; 0.25 mg orally) | mice alive after 8 days ([1]; 0.25 mg subcutaneously) | mice alive after 8 days ([1]; 0.5 mg orally) | Mice alive on the 8th Day ([21]; 0,05 mg S.C.) | Mice alive on the 8th Day ([21]; 0,25 mg OS)
3 µg/mL: MIC ([2]; 24 h, read-out: M.I.C.) | MIC ([2]; 48 h) | MIC ([12]; 99F74, 48 h, 48 H)
5/10: Mice alive on the 8th Day ([21]; 0,1 mg OS)
4/10: Mice alive on the 8th Day ([21]; 0,015 mg S.C.)
0,2 μg/ml: M.I.C. ([5]; 48 H) | M.I.C. ([13]; 24 H)
10 µg/mL: MIC ([20]; 24 h, read-out: M.I.C.)
6/10: Mice alive on the 8th Day ([21]; 0,025 mg S.C.)
4: MORTALITY AFTER 22H 30 ([21]; 0,05 mg OS)
0.02 µg/mL: MIC ([3]; A561, 24 h, 24 H) | MIC ([6]; 24 h) | MIC ([6]; 48 h) | MIC ([11]; EXP.52145, 24 h, 24 H) | MIC ([11]; EXP.52145, 48 h, 48 H) | MIC ([16]; 24 h) | MIC ([16]; 48 h)
2/10: Mice alive on the 8th Day ([21]; 0,05 mg OS)
0.2 µg/mL: MIC ([5]; ATCC9, 24 h, 24 H, read-out: M.I.C.) | MIC (Escherichia Coli Galle; 48 h) | MIC ([10]; 24 h, read-out: M.I.C.) | MIC ([10]; 48 h, read-out: M.I.C.)

C=CCO/N=C(\C(=O)N[C@@H]1C(=O)N2C(C(=O)O)=C(COC(C)=O)CS[C@H]12)c1csc(N)n1 [Example 9, 3-acetoxymethyl-7-[2-(2-amino-4-thiazolyl)-2-(2-propenyl)oxyiminoacetamido]-ceph-3-eme-4-carboxylic acid]
20 µg/mL: MIC ([22]; 48 h) | MIC ([20]; 24 h) | MIC ([20]; 48 h)
10 µg/mL: MIC ([22]; 24 h, read-out: M.I.C.) | MIC ([10]; 48 h, read-out: M.I.C.) | MIC ([18]; Enterococcus faecalis, 5432, 48 h, read-out: M.I.C.)
0.4 µg/mL: MIC ([15]; 24 h, read-out: M.I.C.)
0.02 µg/mL: MIC ([3]; A561, 24 h, 24 H) | MIC ([3]; A561, 48 h, 48 H)
3 µg/mL: MIC (Providencia Du 48; DU48, 24 h, 24 H)
5 µg/mL: MIC (Providencia Du 48; DU48, 48 h, 48 H) | MIC ([14]; 48 h)
0.05 µg/mL: MIC ([11]; EXP.52145, 24 h, 24 H)
0.1 µg/mL: MIC ([11]; EXP.52145, 48 h, 48 H) | MIC ([16]; 24 h) | MIC ([16]; 48 h)
2 µg/mL: MIC ([2]; 24 h) | MIC ([2]; 48 h) | MIC ([8]; UC1, 24 h, 24 H) | MIC ([8]; UC1, 48 h, 48 H) | MIC ([14]; 24 h) | MIC ([17]; 48 h) | MIC [18, 23] | MIC ([19]; Proteus vulgaris, 24 h)
1 µg/mL: MIC ([5]; ATCC9, 24 h, 24 H) | MIC ([5]; ATCC9, 48 h, 48 H) | MIC ([7]; 24 h) | MIC ([7]; 48 h) | MIC ([9]; 24 h) | MIC ([9]; 48 h) | MIC ([10]; 24 h) | MIC ([13]; ATCC6, 24 h, 24 H) | MIC ([13]; ATCC6, 48 h, 48 H) | MIC ([15]; 48 h) | MIC ([17]; 24 h)
